# Measured values taken from patent US8466203B2, “Method of stabilizing human eye tissue by reaction with nitrite and related agents such as nitro compounds” (priority 2006, dated 2013).
# Where two headings read alike, the source gives them in different places.
# Columns and labels:
# porcine sclera [1] = experiment: Thermal shrinkage temperature analysis of porcine scleral strips
# Source text: Thermal shrinkage temperature or denaturation temperature (Ts) is a technique that has been used for decades in studying collagen cross-linking. As collagen fibers are progressively heated, a threshold temperature is reached at which point disruption of hydrogen bonding in the collagen molecule triple helix occurs, resulting in unwinding of the triple helices. The denaturation of tertiary protein structure results in a rapid shrinkage of the tissue of up to 80%. This phenomenon can be expressed in various ways including temperature of onset of tissue shrinkage, temperature at maximal tissue shrinkage, and temperature at 50% of maximal tissue shrinkage, for example. In addition, differential scanning calorimetry (DSC) is related to thermal shrinkage temperature analysis and is widely used to evaluate biomaterial cross-linking. Thermal shrinkage temperature is essentially a simplified version of DSC and can be used effectively to screen the cross-linking efficacy of compounds. For the purposes of this study, the onset of shrinkage is considered the Ts and the temperature at which 50% of maximal shrinkage has occurred is T50. Graphs depicting the relationship between degree of shrinkage and temperature indicate differences in degree of cross-linking between groups. Thus, stabilization of collagen fiber structures through non-enzymatic cross-linking increases Ts and T50.
# This system can perform multiple Ts assays in succession, allowing rapid screening of a number of potential cross-linking agents and conditions. […] Inlet and outlet fittings allow for constant circulation of heated water which is modulated by a digitally controlled water bath equipped with a water pump. The entire box is placed on a digital photo scanner connected to a Windows based computer. Beginning at 50° C. the temperature is raised at a rate of 1° C./min and serial scans are taken at every degree increase in temperature up to 80° C. […] As the tissue shrinks, the images are captured by the scanner. The image files are later analyzed for 2-dimensional area using NIH Image J software and % shrinkage calculations are made using Microsoft Excel for graphing purposes. This method obviates the need for removal of tissue pieces from the water bath with manual micrometer measurements as described by the UVR group (Spoerl, E., et al., 2004).
# Using this simple, reproducible assay enables the screening of a number of compounds for cross-linking efficacy. This is first performed using porcine eyes because of their low cost. Follow up studies can be performed using human eyes. Porcine eyes are obtained within 6 hrs of sacrifice (Hatfield Meat Packing, Inc., Hatfield Pa.). Eyes showing clear corneas and intact epithelia are chosen for study. […] Each strip is then cross-linked using a nitro agent. […] Opthalmol. 1999; 117:166-169) for 24-96 hrs. Following incubation, the samples are evaluated for degree of cross-linking using the Ts assay as described above.
# From the data, Ts curves are generated for each compound and condition studied. Each data point is the average of 3 independent samples.
# Solubility in water = type: physicochemical
# [2] = test system: fibroblast-populated collagen gels; details: 100 mM; pretreatment pH 4.0 24 hours and posttreatment pH 7.4 seven days
# Procedure: Biaxial mechanical properties of the collagen gels were examined by performing equibiaxial load controlled experiments after 72 hours of culture for pretreated and 10 days of culture for posttreated collagen gels. To perform the planar biaxial mechanical test, the loading frame was first removed and the gels were floated to the top of their Petri dish using standard media (DMEM with 10% FBS and antibiotics) at 37° C. Gels were loaded by applying equal weights on all sides of the gel simultaneously (equibiaxial loading). First, gels were preconditioned by cyclically applying and removing 1 gram weights on all sides. […] One prominent feature of the preconditioning response in these gels is that the gels undergo some permanent deformation, not relaxing back to their initial dimensions even when fully unloaded.
# The magnitude of the permanent deformation associated with preconditioning was quantified by computing the associated strain (E^P11, E^P22) using the unloaded configuration of the gel at the beginning of the mechanical test as the reference state and the new, stable unloaded state achieved at the end of preconditioning as the deformed state. After preconditioning, calibrated weights from 0 to 1000 mg are applied equibiaxially in 100 mg increments. Images of the gel surface are taken 30 seconds after each load application or removal, and the strains associated with each load were computed relative to the preconditioned unloaded reference state at the beginning of the loading run.
# The impact of sodium nitrite on vertical deformation of uniaxially constrained gels was measured during each phase of the experiment.
# Initially square fibroblast-populated collagen gels were cast and allowed to polymerize for 2 hrs. Markers were painted on the gel surface to allow tracking of deformation in the central region during the remainder of the experiment. […] At 72 hrs, the gel was mechanically tested. […] Then, the gel was loaded in a series of smaller steps and the response quantified (loading phase).
# porcine cornea [3] = experiment: Gross stiffness of porcine corneal strips handled with a forceps; details: 100 mM, pH 7.4, 37° C., 48 hrs
# Procedure: Fresh porcine corneal strips and corneoscleral complexes obtained within 6 hrs of sacrifice and incubated at 37° C. in buffered solutions (pH 7.4) containing 20% Dextran (T500) and either 100 mM NaNO2 or 100 mM of one each of the specified β-nitro alcohols
# These images were taken from tissues cross-linked with nitrite and the β-nitro alcohols 2-nitroethanol, 2-nitro-1-propanol, and […], for 48 hrs. […] Fresh porcine corneal strips and corneoscleral complexes were obtained within 6 hrs of sacrifice and incubated at 37° C. in buffered solutions (pH 7.4) containing 20% Dextran (T500) and either 100 mM NaNO2 or 100 mM of one each of the β-nitro alcohols. After 48 hrs, the following images were obtained. […] FIGS. 13 (B and D)
# porcine sclera [4] = details: 200 mM, pH 5.0, 37° C., 30 hours
# Procedure: (§1) Adult porcine eyes were obtained within 12 hours of sacrifice and submerged in a solution of either 200 mM NaNO2 or 200 mM NaCl buffered with 200 mM NaH2PO4/Na2HPO4 (pH 5.0). Penicillin/Streptomycin was added (10 μl/ml) to prevent bacterial overgrowth. After 30 hours of incubation at 37° C., the corneas were excised at the limbus and photographed.
# type I collagen = type I collagen (Bos taurus, UniProt P02453+P02465); details: 7 day incubation, pH 7.4, 4° C.
# Procedure: Samples of pepsin-solubilized, bovine skin collagen type I (Purecol, 3 mg/ml, Inamed Corporation, Fremont, Calif., USA) dissolved in 0.012N HCl were spiked with dH2O containing 1M NaNO2 or NaCl concentration to obtain final concentrations of 0 mM, 10 mM, 100 mM NaNO2, and 100 mM NaCl. […] These conditions were identical to those used in the preincubation treatment of collagen for biomechanical testing. Following a 24 hour incubation (4° C.), an aliquot from each sample was added into SDS-PAGE sample buffer (Biorad) in a ratio of 1:2 (sample:sample buffer), reduced by heating at 100° C. for 5 minutes with dithiothreitol (DTT), and analyzed by SDS-PAGE. The separating gel was 5% acrylamide and stacking gel 4%. Equivalent quantities of protein (6 μg per lane) were loaded onto separate wells. The samples were run at 25 volts for approximately 3.5 hours, which was the time necessary for the dye front to leave the bottom of the gel. The gels were then stained with Coomasie blue solution for no less than 3 hours. Following destaining, the gels were digitally photographed for densitometric analysis, which was carried out using the Un-Scan-it software program version 4.1 (Silk Scientific Corp). […]
# [5] = 4° C.
# Procedure: Adult porcine eyes were obtained within 12 hours of. sacrifice and submerged in solutions of 0, 10, 100 mM NaNO2 and 100 mM NaCl buffered with 50 mM NaH2PO4/Na2HPO4 (pH 7.4) following bubbling with 99% Argon/1% O2 in order to limit the amount of potential nitrite auto-oxidation caused by oxygen. Penicillin/Streptomycin was added (10 μl/ml) to prevent bacterial overgrowth. After 24 hours of incubation at 4° C., the aqueous humor was sampled for nitrite concentration using a modification of the Greiss colorimetric assay.
# Adult porcine eyes were obtained within 12 hrs of sacrifice and submerged in solutions of 0, 10, 100 mM NaNO2 and 100 mM NaCl buffered with 50 mM NaH2PO4/Na2HPO4 (pH 7.4) following bubbling with 100% Argon in order to limit the amount of potential nitrite auto-oxidation caused by oxygen. Penicillin/Streptomycin was added (10 ul/ml) to prevent bacterial overgrowth. After 24 hrs of incubation at 4° C., the aqueous humor was sampled for nitrite concentration using a modification of the Greiss colorimetric assay.
# ARPE-19 cells = test system: ARPE-19 cells
# Source text: A cytotoxicity study was undertaken to obtain an impression of the level of cellular tolerance to these compounds. For pilot experiments ARPE-19 cells were used. This is an immortal human retinal pigment epithelial cell line commonly used for experiments related to macular degeneration. In these pilot studies, the ARPE-19 cells serve as a surrogate for cytotoxicity experiments. Primary cultures of bovine corneal endothelial cells were also used in the cytotoxicity studies described. Bovine corneal cells have more direct relevance for evaluating potential cytotoxic effects during cross-linking of living eye tissue.
# ARPE-19 cells were grown to 80% confluence in 96 well tissue culture plates. The cells were then exposed to varying concentrations of NaNO2 and 2-nitroethanol in their culture medium and evaluated for cell death using trypan blue (TB) staining (0.4% for 5 min) after 24 hrs.
# porcine cornea [6] = details: 200 mM, pH 5.0, 37° C.
# Procedure: as §1
# After 30 and 80 hours of incubation at 37° C., the corneas were excised at the limbus and subjected to shrinkage temperature (thermal denaturation) analysis. The intact cornea was heated in 2° C. increments every 5 minutes using a digitally controlled water bath. The maximal dimensions in the long and short axis were measured using a micrometer under visualization with an operating microscope. The percentage of tissue shrinkage was then estimated by using 2 dimensional area calculations from the micrometer readings.
# porcine cornea [7] = details: 200 mM, pH 5.0, 37° C., 30 hours
# Procedure: as §1
# corneal endothelial cell = details: 3 hrs exposure, rabbit organ culture, electron microscopy, Green 1977; cited from earlier work
# [8] = 100 mM, 1% DMSO, pH 7.4, 96 hrs
# [9] = NaNO2 100 mM pH 3 with 1 mM urea
# [10] = NaNO2 100 mM pH 3 with 10 mM urea
# [11] = NaNO2 100 mM pH 3 with 100 mM urea
# Chain of type I collagen (P02453 162-1217 limits assumed): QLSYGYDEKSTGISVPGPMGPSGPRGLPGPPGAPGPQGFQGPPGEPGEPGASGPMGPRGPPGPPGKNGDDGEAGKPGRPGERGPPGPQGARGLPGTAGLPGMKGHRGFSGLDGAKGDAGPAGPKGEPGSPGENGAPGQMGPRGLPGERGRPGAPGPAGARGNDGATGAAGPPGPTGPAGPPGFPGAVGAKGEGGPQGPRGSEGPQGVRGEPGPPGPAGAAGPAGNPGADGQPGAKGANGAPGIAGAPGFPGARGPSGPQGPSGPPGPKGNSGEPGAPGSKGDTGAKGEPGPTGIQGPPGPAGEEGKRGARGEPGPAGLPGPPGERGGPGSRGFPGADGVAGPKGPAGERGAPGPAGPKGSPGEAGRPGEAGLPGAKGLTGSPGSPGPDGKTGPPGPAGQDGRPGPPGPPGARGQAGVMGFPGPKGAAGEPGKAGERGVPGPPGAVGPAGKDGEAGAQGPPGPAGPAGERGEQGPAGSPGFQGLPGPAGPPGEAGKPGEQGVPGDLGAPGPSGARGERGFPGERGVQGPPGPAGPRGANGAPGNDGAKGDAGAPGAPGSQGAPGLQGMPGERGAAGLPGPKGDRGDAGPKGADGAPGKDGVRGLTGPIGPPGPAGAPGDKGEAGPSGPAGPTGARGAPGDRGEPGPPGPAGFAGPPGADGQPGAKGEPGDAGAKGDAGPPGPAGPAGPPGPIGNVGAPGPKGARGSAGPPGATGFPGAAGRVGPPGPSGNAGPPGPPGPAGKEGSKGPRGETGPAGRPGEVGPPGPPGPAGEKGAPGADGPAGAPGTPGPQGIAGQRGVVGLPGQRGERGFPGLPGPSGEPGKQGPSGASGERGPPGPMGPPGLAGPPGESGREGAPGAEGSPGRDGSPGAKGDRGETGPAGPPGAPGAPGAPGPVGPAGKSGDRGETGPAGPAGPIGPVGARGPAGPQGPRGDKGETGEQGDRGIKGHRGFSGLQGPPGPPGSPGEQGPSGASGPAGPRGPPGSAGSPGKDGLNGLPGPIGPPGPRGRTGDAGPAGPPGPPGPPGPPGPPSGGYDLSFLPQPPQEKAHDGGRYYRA
# Chain of type I collagen (P02465 80-1117 limits assumed): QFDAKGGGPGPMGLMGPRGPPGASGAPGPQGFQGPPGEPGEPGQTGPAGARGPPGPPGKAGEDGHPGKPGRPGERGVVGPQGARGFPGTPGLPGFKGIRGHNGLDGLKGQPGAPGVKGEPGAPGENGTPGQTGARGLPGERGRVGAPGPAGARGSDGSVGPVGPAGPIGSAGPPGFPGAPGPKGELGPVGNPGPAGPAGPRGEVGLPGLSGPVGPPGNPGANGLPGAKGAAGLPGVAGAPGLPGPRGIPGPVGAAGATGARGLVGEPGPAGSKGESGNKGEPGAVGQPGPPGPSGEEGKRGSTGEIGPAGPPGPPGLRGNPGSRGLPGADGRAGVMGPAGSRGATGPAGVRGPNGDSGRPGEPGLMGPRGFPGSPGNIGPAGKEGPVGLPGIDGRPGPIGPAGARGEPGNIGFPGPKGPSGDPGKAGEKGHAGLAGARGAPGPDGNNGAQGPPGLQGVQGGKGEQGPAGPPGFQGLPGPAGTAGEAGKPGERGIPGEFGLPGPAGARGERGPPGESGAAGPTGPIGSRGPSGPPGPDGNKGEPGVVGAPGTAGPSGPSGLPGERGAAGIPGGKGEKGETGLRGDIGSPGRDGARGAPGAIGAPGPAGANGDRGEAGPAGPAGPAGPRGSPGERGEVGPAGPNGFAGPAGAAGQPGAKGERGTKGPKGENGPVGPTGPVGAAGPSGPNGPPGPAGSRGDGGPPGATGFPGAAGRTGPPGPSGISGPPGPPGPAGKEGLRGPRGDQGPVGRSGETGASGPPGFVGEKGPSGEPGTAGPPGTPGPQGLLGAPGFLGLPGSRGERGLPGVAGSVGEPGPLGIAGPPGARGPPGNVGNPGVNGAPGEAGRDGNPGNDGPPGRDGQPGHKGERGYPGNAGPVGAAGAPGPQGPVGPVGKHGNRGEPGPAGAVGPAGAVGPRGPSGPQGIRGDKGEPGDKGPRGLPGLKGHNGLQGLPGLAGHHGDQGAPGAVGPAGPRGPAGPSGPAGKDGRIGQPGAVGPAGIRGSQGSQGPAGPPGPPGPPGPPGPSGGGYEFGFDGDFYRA
compound,measurement,setting,value
"CC(C)CCON=O [Isopentyl nitrite, isopentyl nitrite, reference compound]",T50,porcine sclera [1]; [8],65.4 °C
same,T50 Δ,porcine sclera [1]; [8],0.1 °C
same,shift in Ts (in words),"porcine sclera [1]; neutral pH, up to 100 mM",did not result in a shift in Ts
same,solubility in water,Solubility in water,poor solubility in water
"O=N[O-].[Na+] [NaNO2, sodium nitrite]",vertical deformation associated with preconditioning,[2],reduced vertical deformation associated with preconditioning
same,vertical deformation at 1 g equibiaxial load,[2],reduced vertical deformation at 1 g equibiaxial load
same,vertical remodeling,[2],reduced vertical remodeling
same,stiffness change when handled with a forceps,porcine cornea [3],intermediate effect
same,contour changes in sclera samples,porcine sclera [4],dramatic contour changes
same,collagen cross-linking by SDS-PAGE,type I collagen; 10 mM,No differences are observed
same,collagen cross-linking by SDS-PAGE,type I collagen; 100 mM,cross-linking of collagen primary strands is indicated
same,"Nitrite concentration in the aqueous humor, of the incubation fluid","[5]; 10 mM NaNO2, pH 7.4, 24 hours",35.5%
same,"Nitrite concentration in the aqueous humor, of the incubation fluid","[5]; 100 mM NaNO2, pH 7.4, 24 hours",62.8%
same,blocking of the cross-linking effect by equimolar urea,porcine sclera [1],unable to block
same,T50,"porcine sclera [1]; 100 mM, pH 3, 96 hrs",69.3 °C
same,T50 Δ,"porcine sclera [1]; 100 mM, pH 3, 96 hrs",4.0 °C
same,T50,"porcine sclera [1]; 100 mM, pH 5, 96 hrs",67.3 °C
same,T50 Δ,"porcine sclera [1]; 100 mM, pH 5, 96 hrs",2.0 °C
same,T50,porcine sclera [1]; [9],70.1 °C
same,T50 Δ,porcine sclera [1]; [9],4.8 °C
same,T50,porcine sclera [1]; [10],69.7 °C
same,T50 Δ,porcine sclera [1]; [10],4.4 °C
same,T50,porcine sclera [1]; [11],65.6 °C
same,T50 Δ,porcine sclera [1]; [11],0.3 °C
same,shifts in Ts (in words),porcine sclera [1]; pH 3,approximately equal shifts in Ts
same,T50 (temperature at 50% of maximal shrinkage),porcine sclera [1]; pH 7.4,65.7 °C
same,T50 Δ (change in 50% shrinkage temperature compared to control),porcine sclera [1]; pH 7.4,0.4 °C
same,effect on Ts (in words),porcine sclera [1]; pH 7.4,no effect
same,tolerable level relative to genipin,ARPE-19 cells,at least 100 ×
same,tolerance by cells (trypan blue),"ARPE-19 cells; 100 mM, 24 hrs",tolerated by cells
same,highest tolerated level,ARPE-19 cells; ARPE-19,100 mM
same,increase of onset of tissue shrinkage,porcine cornea [6]; 30 hours of treatment,approximately 4 °C
same,increase of onset of tissue shrinkage,porcine cornea [6]; 80 hours of treatment,~8 °C
same,contour changes in the corneas,porcine cornea [7],Dramatic contour changes
Benzalkonium chloride,Toxic concentration,corneal endothelial cell,(0.0001%)
